According to article doi:10.1101/2025.05.14.653428v1 (bioRxiv, 2025):
Where a SMILES comes first, the peptide text is derived from it.

Experiments:
[1] = Evaluation of toxicity in vivo; parameters: species or system mice; settings: 10 days intraperitoneal, 1 mg/mouse/day, N=10/group
[2] = GLQGE detection in plasma after injection; format: in vivo, mice; settings: for time to enter the circulation / time until cleared from the bloodstream: LC-MS/MS; for Tmax: mouse
[3] = system: TGF-β in hepatocytes; assay: TGF-β mRNA and protein in cultured hepatocytes; format: cell-based, murine; settings: hepatocytes on vitronectin, 24 hours
[4] = system: hepatocytes; format: cell-based, murine; settings: 50μg/mL, 24 hours, flow cytometry
[5] = system: pFAK in hepatocytes; assay: pFAK in hepatocytes by western blotting; format: cell-based, murine; settings: suspension without FCS 2 hours, 50μg/mL for 30 minutes
[6] = system: Huh-7 hepatoma cell line; assay: TGF-β protein in Huh-7 cells; format: cell-based; settings: cultured on vitronectin, 50μg/mL, 24 hours

## GLOGE (head to tail)
[1]
  blood values of kidney function: no significant abnormalities
  blood values of liver function: no significant abnormalities
  blood values of pancreas function: no significant abnormalities
  complete blood count: no significant abnormalities

## CC(C)C[C@@H]1NC(=O)CNC(=O)[C@H](CCC(=O)O)NC(=O)CNC(=O)[C@H](CCC(N)=O)NC1=O [GLQGE] (cyclo(EGLQG))
[2]; i.p. injection of 0.5 mg GLQGE
  time to enter the circulation: ≤ 5 min
  time until cleared from the bloodstream: ≤ 120 min
[2]; ip, 0.5 mg/mouse
  Tmax: 15 min
[2]; sc, 1 mg/mouse
  Tmax: 15 min
[2]; s.c. injection of 1 mg GLQGE
  time to enter the circulation: ≤ 5 min
  time until cleared from the bloodstream: ≤ 120 min
[3]; 50μg/mL, MLEC bioassay
  total TGF-β protein in hepatocytes: suppressed
[3]; 50μg/mL, qPCR
  TGF-β mRNA expression in cultured hepatocytes compared to untreated control: diminished
[4]
  hepatocyte apoptosis (annexinv-propidium-iodide staining): did not affect
  hepatocyte proliferation (ki67 staining): did not affect
[5]
  pFAK in hepatocytes from β3 global knockout mice: increase
[5]; western blotting
  pFAK in hepatocytes: increased
[1]
  blood values of kidney function: no significant abnormalities
  blood values of liver function: no significant abnormalities
  blood values of pancreas function: no significant abnormalities
  complete blood count: no significant abnormalities

## CS(=O)(=O)c1cccc(CNc2nc(Nc3ccc4c(c3)CCC(=O)N4)ncc2C(F)(F)F)c1 [PF573228, reference compound]
[3]; 5μM
  TGF-β mRNA expression in wildtype hepatocytes after FAK inhibition: rise

## GLNGE (head to tail)
[3]; 50μg/mL, qPCR
  TGF-β mRNA in cultured hepatocytes compared to GLOGE: diminished
[6]
  TGF-β protein in Huh-7: reduced
[1]
  blood values of kidney function: no significant abnormalities
  blood values of liver function: no significant abnormalities
  blood values of pancreas function: no significant abnormalities
  complete blood count: no significant abnormalities
